Data on seven compounds can be found in ChEMBL document CHEMBL1121593, “Synthesis of 2,4-disubstituted 6-methoxy-8-aminoquinoline analogues as potential antiparasitics” (J Med Chem, 1980).

Series [1] has as its system Mus musculus. In words: Mean survival time which expresses the antimalarial activity of compound was measured against Plasmodium berghei in mice (Mus musculus) at 80 mg/kg dose. Type of series: functional.
The test system of series [2] is Mus musculus. As to the kind of experiment: (§1) Mean survival time which expresses the antimalarial activity of compound was measured against Plasmodium berghei in mice (Mus musculus) at 640 mg/kg dose. In kind it is functional.
Series [3] relates to Mus musculus. In words: Mean survival time which expresses the antimalarial activity of compound was measured against Plasmodium berghei in mice (Mus musculus) a 160 mg/kg dose. In kind it is functional.
The test system of series [4] is Mus musculus. In words: Mean survival time which expresses the antimalarial activity of compound was measured against Plasmodium berghei in mice (Mus musculus) at 20 mg/kg dose. Type of series: functional.
Series [5] has as its system Mus musculus. In words: (§2) Mean survival time which expresses the antimalarial activity of compound was measured against Plasmodium berghei in mice (Mus musculus) at 320 mg/kg dose. In kind it is functional.
In series [6] the test system is Mus musculus. As to the kind of experiment: Mean survival time which expresses the antimalarial activity of compound was measured against Plasmodium berghei in mice (Mus musculus) at 40 mg/kg dose. Type of series: functional.
Series [7] relates to Cricetinae gen. sp. In words: (§3) G index is the relative activity to that of glucantime was measured on Leishmania donovani in hamsters. Type of series: functional, hamster.
For series [8], the system named is Mus musculus. As to the kind of experiment: (§4) Mean survival time which expresses the antimalarial activity of compound was measured against Plasmodium berghei in mice (Mus musculus) at 160 mg/kg dose. Type of series: functional.
The subject of a further series is Plasmodium cynomolgi. In words: Radical curative activity in presence of chloroquine against Plasmodium cynomolgi infected Rhesus monkey at 1.3 mg/kg. In kind it is functional.
For series [9], the system named is Cricetinae gen. sp. The description is as §3. Type of series: functional, Cricetulus griseus.
Series [10] deals with Mus musculus. The series is described as §4. In kind it is ADME, organism-based. The arrangement: dose 160 mg/kg. The settings on record: in vivo.
The test system of series [11] is Mus musculus. Described as §1. Type of series: ADME, organism-based. Details: dose 640 mg/kg. The conditions noted are these: in vivo.
The subject of series [12] is Mus musculus. The description is as §2. Type of series: ADME, organism-based. The arrangement: dose 320 mg/kg. The conditions noted are these: in vivo.
The test system of series [13] is Mus musculus. In words: Mean survival time which expresses the antimalarial activity of compound was measured against Plasmodium berghei in mice (Mus musculus) at […] mg/kg dose. In kind it is functional.

As to `C=Cc1cc(C)c2cc(OC)cc(NC(C)CCCN)c2n1` (centres undefined), the “Delta MST” value with Mus musculus [1] was 0.6 days; with Mus musculus [2], 6.2 days; in the series on Mus musculus [3], 0.4 days; in the series on Mus musculus [4], 0 days; in the series on Mus musculus [5], 2.2 days; in the series with Mus musculus [6], 0 days.

Take `CCc1cc(C)nc2c(NCCCCCCN(CC)CC)cc(OC)cc12`: in the series with Cricetinae gen. sp. [7], the Relative activity is 29.2. Moreover, the figures for the “Delta MST” value in the series on Mus musculus [2], with Mus musculus [8] and in the series with Mus musculus [6] were 4.9 days, 2.7 days and 1.3 days, respectively.

With `CCc1cc(C)nc2c(NC(C)CCCN)cc(OC)cc12` (centres undefined), the “Delta MST” value with Mus musculus [1] was determined as 3.7 days; with Mus musculus [2] it was 10.3 days; with Mus musculus [8], 5.1 days; in the series with Mus musculus [4] it was 1.7 days; in the series on Mus musculus [5] it was 7.7 days; in the series on Mus musculus [6] it was 2.3 days.

Regarding `CCc1cc(C)c2cc(OC)cc(NC(C)CCCN)c2n1` (centres undefined), the Relative activity with Cricetinae gen. sp. [7] is listed as 8.99. In addition, the Cured in the series with Plasmodium cynomolgi is reported as 90%.

Turning to `CCN(CC)CCCCCCNc1cc(OC)cc2c(C)cc(CCBr)nc12`, in the series on Cricetinae gen. sp. [9], the Relative activity is 2.6. Further, the Deaths with Mus musculus [10] and in the series on Mus musculus [11] was 5 throughout. The “Delta MST” value in the series on Mus musculus [8] was found to be 0 days; with Mus musculus [6], 0.3 days.

`CCc1cc(C)c2cc(OC)cc(NCCCCCCN(CC)CC)c2n1` yielded a Relative activity with Cricetinae gen. sp. [7] of 130. The “Delta MST” value stood at 0.7 days in the series with Mus musculus [2], 0.3 days in the series on Mus musculus [8] and 0.3 days with Mus musculus [6].

On to `COc1cc(NC(C)CCCN)c2ncccc2c1` (centres undefined) [PRIMAQUINE], for which, in the series with Cricetinae gen. sp. [7], the Relative activity came to 2.1. Further, the values for the Deaths with Mus musculus [10], with Mus musculus [12] and in the series on Mus musculus [11] were 2, 5 and 5, respectively. Besides, the “Delta MST” value in the series with Mus musculus [4] amounted to 4 days; in the series with Mus musculus [6], 5 days; in the series on Mus musculus [13], 9.4 days.
